Experimental data taken from patent US9040530B2, “1,2,4-triazine-6-carboxamide kinase inhibitors” (Portola Pharmaceuticals, Inc., priority 2012, dated 2015).

Biological target: T1, full length active recombinant SYK enzyme (Homo sapiens, UniProt P43405)
T1 construct: full length active recombinant SYK enzyme (Millipore, Calif.); purchased Millipore
Test: Inhibition of Syk tyrosine phosphorylation activity (LANCE TR-FRET kinase assay)
Type: biochemical
Details: 1 nM active SYK enzyme, 550 nM SYK-substrate, 100 μM ATP, 1 hour at room temperature

Row | Compound | IC50 [nM]
1 | NC(=O)c1nnc(N[C@@H]2CCCC(F)(F)[C@@H]2N)nc1Nc1ccc(-c2ncco2)cc1 [Example 132, 3-(((1R,2R)-2-amino-3,3-difluorocyclohexyl)amino)-5-((4-(oxazol-2-yl)phenyl)amino)-1,2,4-triazine-6-carboxamide] | 10 to 100
2 | CC[C@@H](Nc1nnc(C(N)=O)c(Nc2ccc3c(c2)CS(=O)(=O)C3)n1)C(N)=O [Example 220, (R)-3-((1-amino-1-oxobutan-2-yl)amino)-5-((2,2-dioxido-1,3-dihydrobenzo[c]thiophen-5-yl)amino)-1,2,4-triazine-6-carboxamide] | 10 to 100
3 | NC(=O)c1nnc(N[C@@H]2CCOC[C@@H]2N)nc1Nc1cccc(C(F)(F)F)c1 [Example 251, 3-(((3R,4R)-3-aminotetrahydro-2H-pyran-4-yl)amino)-5-((3-(trifluoromethyl)phenyl)amino)-1,2,4-triazine-6-carboxamide] | 10 to 100
4 | NC(=O)c1nnc(N[C@@H]2CCOC[C@@H]2N)nc1Nc1ccc2scnc2c1 [Example 247, 3-(((3R,4R)-3-aminotetrahydro-2H-pyran-4-yl)amino)-5-(benzo[d]thiazol-5-ylamino)-1,2,4-triazine-6-carboxamide] | 10 to 100
5 | NC(=O)c1nnc(N[C@@H]2CCCC(F)(F)[C@@H]2N)nc1Nc1ccc2c(c1)CCC2 [Example 213, 3-(((1R,2R)-2-amino-3,3-difluorocyclohexyl)amino)-5-((2,3-dihydro-1H-inden-5-yl)amino)-1,2,4-triazine-6-carboxamide] | 10 to 100
6 | Cc1cccc(Nc2nc(N[C@H](CC(C)C)C(N)=O)nnc2C(N)=O)c1 [Example 120, (R)-3-((1-amino-4-methyl-1-oxopentan-2-yl)amino)-5-(m-tolylamino)-1,2,4-triazine-6-carboxamide] | 10 to 100
7 | Cc1cc(F)cc(Nc2nc(N[C@@H]3CCCC(F)(F)[C@@H]3N)nnc2C(N)=O)c1 [Example 202, 3-(((1R,2R)-2-amino-3,3-difluorocyclohexyl)amino)-5-((3-fluoro-5-methylphenyl)amino)-1,2,4-triazine-6-carboxamide] | 10 to 100
8 | CC[C@@H](Nc1nnc(C(N)=O)c(Nc2ccc3cn[nH]c3c2)n1)C(N)=O [Example 128, (R)-5-((1H-indazol-6-yl)amino)-3-((1-amino-1-oxobutan-2-yl)amino)-1,2,4-triazine-6-carboxamide] | 1 to 10
9 | Cc1ccc(Nc2nc(N[C@@H]3CCCC(F)(F)[C@@H]3N)nnc2C(N)=O)cc1F [Example 205, 3-(((1R,2R)-2-amino-3,3-difluorocyclohexyl)amino)-5-((3-fluoro-4-methylphenyl)amino)-1,2,4-triazine-6-carboxamide] | 10 to 100
10 | NC(=O)c1nnc(N[C@@H]2CCCC(F)(F)[C@@H]2N)nc1Nc1ccc2c(c1)CCCC2 [Example 237, 3-(((1R,2R)-2-amino-3,3-difluorocyclohexyl)amino)-5-((5,6,7,8-tetrahydronaphthalen-2-yl)amino)-1,2,4-triazine-6-carboxamide] | 10 to 100
11 | CC[C@@H](Nc1nnc(C(N)=O)c(Nc2ccc3c(c2)c(C#N)cn3C)n1)C(N)=O [Example 183, (R)-3-((1-amino-1-oxobutan-2-yl)amino)-5-((3-cyano-1-methyl-1H-indol-5-yl)amino)-1,2,4-triazine-6-carboxamide] | < 1
12 | CC[C@@H](Nc1nnc(C(N)=O)c(Nc2ccc3cn(C)nc3c2)n1)C(N)=O [Example 179, (R)-3-((1-amino-1-oxobutan-2-yl)amino)-5-((2-methyl-2H-indazol-6-yl)amino)-1,2,4-triazine-6-carboxamide] | 1 to 10
13 | CC[C@@H](Nc1nnc(C(N)=O)c(Nc2ccc3c(c2)CCC3)n1)C(N)=O [Example 211, (R)-3-((1-amino-1-oxobutan-2-yl)amino)-5-((2,3-dihydro-1H-inden-5-yl)amino)-1,2,4-triazine-6-carboxamide] | 1 to 10
14 | Cn1ccc2cc(Nc3nc(N[C@@H]4CCCC(F)(F)[C@@H]4N)nnc3C(N)=O)cnc21 [Example 151, 3-(((1R,2R)-2-amino-3,3-difluorocyclohexyl)amino)-5-((1-methyl-1H-pyrrolo[2,3-b]pyridin-5-yl)amino)-1,2,4-triazine-6-carboxamide] | 100 to 1000
15 | NC(=O)c1nnc(N[C@@H]2CCCC(F)(F)[C@@H]2N)nc1Nc1ccc2ncccc2c1 [Example 49, 3-(((1R,2R)-2-amino-3,3-difluorocyclohexyl)amino)-5-(quinolin-6-ylamino)-1,2,4-triazine-6-carboxamide] | 10 to 100
16 | CC[C@@H](Nc1nnc(C(N)=O)c(Nc2ccc(Cl)c(Cl)c2)n1)C(N)=O [Example 235, (R)-3-((1-amino-1-oxobutan-2-yl)amino)-5-((3,4-dichlorophenyl)amino)-1,2,4-triazine-6-carboxamide] | 10 to 100
17 | CC(C)C[C@@H](Nc1nnc(C(N)=O)c(Nc2cncc(F)c2)n1)C(N)=O [Example 16, (R)-3-((1-amino-4-methyl-1-oxopentan-2-yl)amino)-5-((5-fluoropyridin-3-yl)amino)-1,2,4-triazine-6-carboxamide] | 100 to 1000
18 | Cc1ccc(Nc2nc(N[C@@H]3CCOC[C@@H]3N)nnc2C(N)=O)cc1Cl [Example 225, 3-(((3R,4R)-3-aminotetrahydro-2H-pyran-4-yl)amino)-5-((3-chloro-4-methylphenyl)amino)-1,2,4-triazine-6-carboxamide] | 1 to 10
19 | Cc1ccc(Nc2nc(N[C@@H](C(N)=O)c3ccccc3)nnc2C(N)=O)cc1 [Example 191, (R)-3-(2-amino-2-oxo-1-phenylethylamino)-5-(p-tolylamino)-1,2,4-triazine-6-carboxamide] | 100 to 1000
20 | CC(C)C[C@@H](Nc1nnc(C(N)=O)c(Nc2ccc(Cl)c(Cl)c2)n1)C(N)=O [Example 255, (R)-3-((1-amino-4-methyl-1-oxopentan-2-yl)amino)-5-((3,4-dichlorophenyl)amino)-1,2,4-triazine-6-carboxamide] | 10 to 100
21 | CC[C@@H](Nc1nnc(C(N)=O)c(Nc2cncc(F)c2)n1)C(N)=O [Example 15, (R)-3-((1-amino-1-oxobutan-2-yl)amino)-5-((5-fluoropyridin-3-yl)amino)-1,2,4-triazine-6-carboxamide] | 100 to 1000
22 | Cc1cc(Nc2nc(N[C@@H]3CCOC[C@@H]3N)nnc2C(N)=O)ccc1Cl [Example 224, 3-(((3R,4R)-3-aminotetrahydro-2H-pyran-4-yl)amino)-5-((4-chloro-3-methylphenyl)amino)-1,2,4-triazine-6-carboxamide] | 1 to 10
23 | CC[C@@H](Nc1nnc(C(N)=O)c(Nc2ccc(C)cc2)n1)C(N)=O [Example 10, (R)-3-((1-amino-1-oxobutan-2-yl)amino)-5-(p-tolylamino)-1,2,4-triazine-6-carboxamide] | 10 to 100
24 | CC(C)C[C@@H](Nc1nnc(C(N)=O)c(Nc2ccc(Cl)cc2)n1)C(N)=O [Example 248, (R)-3-((1-amino-4-methyl-1-oxopentan-2-yl)amino)-5-((4-chlorophenyl)amino)-1,2,4-triazine-6-carboxamide] | 10 to 100

Other lines, results leading:

Row | IC50 [nM] | Compound
25 | 1 to 10 | NC(=O)c1nnc(N[C@@H]2CCCC[C@@H]2N)nc1Nc1ccc(-c2ncccn2)cc1 [Example 3, 3-(((1R,2S)-2-aminocyclohexyl)amino)-5-((4-(pyrimidin-2-yl)phenyl)amino)-1,2,4-triazine-6-carboxamide]
26 | 1 to 10 | NC(=O)c1nnc(N[C@@H]2CCCC[C@@H]2N)nc1Nc1ccc(Cl)cc1 [Example 27, 3-(((1R,2S)-2-aminocyclohexyl)amino)-5-((4-chlorophenyl)amino)-1,2,4-triazine-6-carboxamide]
27 | 10 to 100 | NC(=O)c1nnc(N[C@@H]2CCCC[C@@H]2N)nc1Nc1cccc2ncsc12 [Example 40, 3-(((1R,2S)-2-aminocyclohexyl)amino)-5-(benzo[d]thiazol-7-ylamino)-1,2,4-triazine-6-carboxamide]
28 | 1 to 10 | NC(=O)c1nnc(N[C@@H]2CCCC[C@@H]2N)nc1Nc1cc(F)cc(Cl)c1 [Example 21, 3-(((1R,2S)-2-aminocyclohexyl)amino)-5-((3-chloro-5-fluorophenyl)amino)-1,2,4-triazine-6-carboxamide]
29 | 100 to 1000 | N#Cc1ccccc1Nc1nc(N[C@@H]2CCCC[C@@H]2N)nnc1C(N)=O [Example 115, 3-(((1R,2S)-2-aminocyclohexyl)amino)-5-((2-cyanophenyl)amino)-1,2,4-triazine-6-carboxamide]
30 | 1 to 10 | Cn1ccc2c(Nc3nc(N[C@@H]4CCCC[C@@H]4N)nnc3C(N)=O)cccc21 [Example 81, 3-(((1R,2S)-2-aminocyclohexyl)amino)-5-((1-methyl-1H-indol-4-yl)amino)-1,2,4-triazine-6-carboxamide]
31 | 100 to 1000 | NC(=O)c1nnc(N[C@@H]2CCCC[C@@H]2N)nc1Nc1cc(-c2ccc(F)cc2)on1 [Example 127, 3-(((1R,2S)-2-aminocyclohexyl)amino)-5-((5-(4-fluorophenyl)isoxazol-3-yl)amino)-1,2,4-triazine-6-carboxamide]
32 | < 1 | NC(=O)c1nnc(N[C@@H]2CCCC[C@@H]2N)nc1Nc1ccc2cn[nH]c2c1 [Example 126, 5-((1H-indazol-6-yl)amino)-3-(((1R,2S)-2-aminocyclohexyl)amino)-1,2,4-triazine-6-carboxamide]
33 | 10 to 100 | Cc1cc(Nc2nc(N[C@@H]3CCCC[C@@H]3N)nnc2C(N)=O)ccc1C(=O)N1CCC1 [Example 64, 3-(((1R,2S)-2-aminocyclohexyl)amino)-5-((4-(azetidine-1-carbonyl)-3-methylphenyl)amino)-1,2,4-triazine-6-carboxamide]
34 | 10 to 100 | NC(=O)c1nnc(N[C@@H]2CCCC[C@@H]2N)nc1Nc1ccc(C(F)(F)F)cc1 [Example 168, 3-(((1R,2S)-2-aminocyclohexyl)amino)-5-((4-(trifluoromethyl)phenyl)amino)-1,2,4-triazine-6-carboxamide]
35 | 10 to 100 | NC(=O)c1nnc(N[C@@H]2CCCC[C@@H]2N)nc1Nc1ccc(-n2nccn2)cc1 [Example 97, 5-((4-(2H-1,2,3-triazol-2-yl)phenyl)amino)-3-(((1R,2S)-2-aminocyclohexyl)amino)-1,2,4-triazine-6-carboxamide]
